Laboratory results reported in PubChem BioAssay (NCI).
Values joined by “and” are separate entries in the source; they are usually repeats but may differ in a detail not shown here. Equal entries are not always repeated.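 The concentration for 50% growth inhibition is given as GI50. The concentration for full growth arrest is given as TGI.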

Tests used:
Experiment in all cases: inhibition of tumour cell growth, NCI panel, 384-well format; in the data active means GI50 below about 0.43 µM; inactive means the rest
[1] = test system: 786-0 renal
[2] = test system: A498 renal
[3] = test system: A549 NSCLC
[4] = test system: ACHN renal
[5] = test system: BT-549 breast
[6] = test system: CAKI-1 renal
[7] = test system: CCRF-CEM leukemia
[8] = test system: COLO 205 colon
[9] = test system: DU-145 prostate
[10] = test system: EKVX NSCLC
[11] = test system: HCC-2998 colon
[12] = test system: HCT-116 colon
[13] = test system: HCT-15 colon
[14] = test system: HL-60(TB) leukemia
[15] = test system: HOP-62 NSCLC
[16] = test system: HOP-92 NSCLC
[17] = test system: HS 578T breast
[18] = test system: HT29 colon
[19] = test system: IGROV1 ovarian
[20] = test system: K-562 leukemia
[21] = test system: KM12 colon
[22] = test system: LOX IMVI melanoma
[23] = test system: M14 melanoma
[24] = test system: MALME-3M melanoma
[25] = test system: MCF7 breast
[26] = test system: MDA-MB-231 breast
[27] = test system: MDA-MB-435 melanoma
[28] = test system: MDA-MB-468 breast
[29] = test system: MOLT-4 leukemia
[30] = test system: NCI-H226 lung
[31] = test system: NCI-H23 lung
[32] = test system: NCI-H322M lung
[33] = test system: NCI-H460 NSCLC
[34] = test system: NCI-H522 lung
[35] = test system: NCI/ADR-RES ovarian
[36] = test system: OVCAR-3 ovarian
[37] = test system: OVCAR-4 ovarian
[38] = test system: OVCAR-8 ovarian
[39] = test system: PC-3 prostate
[40] = test system: RPMI-8226 leukemia
[41] = test system: RXF 393 renal
[42] = test system: SF-268 CNS
[43] = test system: SF-295 CNS
[44] = test system: SF-539 CNS
[45] = test system: SK-MEL-28 melanoma
[46] = test system: SK-MEL-5 melanoma
[47] = test system: SK-OV-3 ovarian
[48] = test system: SN12C renal
[49] = test system: SNB-19 CNS
[50] = test system: SNB-75 CNS
[51] = test system: SR leukemia
[52] = test system: SW-620 colon
[53] = test system: T-47D breast
[54] = test system: TK-10 renal
[55] = test system: U251 glioblastoma
[56] = test system: UACC-257 melanoma
[57] = test system: UACC-62 melanoma
[58] = test system: UO-31 renal
[59] = test system: OVCAR-5 ovarian

Cc1cc(C(=O)NC(CCC(=O)O)C(=O)O)sc1CCC1CNc2nc(N)[nH]c(=O)c2C1 (stereo not given)
53.9 nM and 82.6 nM: TGI [36]
42.8 nM and 61 nM: TGI [3]
< 10 nM and 14.3 nM: TGI [50]
24.8 nM and 39.8 nM: TGI [12]
< 10 nM and 23.4 nM: TGI [48]
active: GI50 [1] < 0.01 µM | GI50 [2] < 0.01 µM | GI50 [3] 20.1 nM and 24.2 nM | GI50 [4] < 10 nM and 19.6 nM | GI50 [5] 19.3 nM and 18.2 nM | GI50 [6] < 0.01 µM | GI50 [7] < 0.01 µM | GI50 [8] 28.5 nM and 29.7 nM | GI50 [9] < 0.01 µM | GI50 [10] 12 nM and 17.1 nM | GI50 [11] 22.4 nM and 51.4 nM | GI50 [12] < 10 nM and 15.9 nM | GI50 [13] 25 nM and 31.4 nM | GI50 [14] < 0.01 µM | GI50 [15] 18.2 nM | GI50 [16] < 0.01 µM | GI50 [17] 22 nM and 25.9 nM | GI50 [18] < 10 nM and 17 nM | GI50 [19] 19.7 nM and 20.3 nM | GI50 [20] < 0.01 µM | GI50 [21] 25.6 nM and 28.7 nM | GI50 [22] 19.4 nM and 20 nM | GI50 [23] < 0.01 µM | GI50 [24] 16 nM and 19.8 nM | GI50 [25] < 10 nM and 17.5 nM | GI50 [27] 17.3 nM and 16.7 nM | GI50 [28] 17.5 nM and 17.6 nM | GI50 [29] < 10 nM | GI50 [30] 24.2 nM and 25.8 nM | GI50 [31] 29 nM and 150 nM | GI50 [32] 17.8 nM and 20.2 nM | GI50 [33] < 10 nM and 10.9 nM | GI50 [34] < 10 nM and 17.6 nM | GI50 [35] 19 nM and 17.5 nM | GI50 [36] 21.7 nM and 29 nM | GI50 [37] 20.5 nM and 22 nM | GI50 [38] < 0.01 µM | GI50 [39] < 0.01 µM | GI50 [40] 17.7 nM and 17.1 nM | GI50 [41] < 0.01 µM | GI50 [42] < 0.01 µM | GI50 [43] 18.4 nM and 18.6 nM | GI50 [44] < 0.01 µM | GI50 [45] 13.2 nM and 16.9 nM | GI50 [46] 24.5 nM and 33.3 nM | GI50 [47] < 0.01 µM | GI50 [48] < 0.01 µM | GI50 [49] < 10 nM and 13 nM | GI50 [50] < 0.01 µM | GI50 [52] < 10 nM and 13.3 nM | GI50 [53] 23.8 nM and 30.3 nM | GI50 [54] < 0.01 µM | GI50 [55] < 10 nM and 16.4 nM | GI50 [56] 12.9 nM and 18.3 nM | GI50 [57] 11.3 nM and 25.6 nM | GI50 [58] < 10 nM and 18.7 nM
388 nM and 1680 nM: GI50 [26]
91.6 nM and 202 nM: TGI [46]
85.4 nM and 401 nM: TGI [31]
21.1 nM and 35.6 nM: TGI [52]
34.6 nM and 35.8 nM: TGI [15]
29.6 nM and 34.7 nM: TGI [45]
36.5 nM and 46.9 nM: TGI [56]
28.5 nM and 46.4 nM: TGI [18]
77.2 nM and 378 nM: TGI [11]
< 10 nM and 14.9 nM: TGI [16]
37.5 nM and 36.4 nM: TGI [5]
38.2 nM and 38.7 nM: TGI [27]
81.6 nM and 141 nM: TGI [8]
35.4 nM and 36.3 nM: TGI [43]
< 10 nM and 30.1 nM: TGI [49]
22.9 nM and 33.5 nM: TGI [55]
35.4 nM and 36 nM: TGI [40]
12.8 nM and 16.8 nM: TGI [29]
35.8 nM and 41.1 nM: TGI [24]
< 10 nM and 11.6 nM: TGI [38]
40.7 nM and 44.4 nM: TGI [22]
inactive: GI50 [51] > 100000 nM
59.1 nM and 75.1 nM: TGI [30]
< 10 nM and 20.5 nM: TGI [44]
28 nM and 47.7 nM: TGI [25]
60.1 nM and 107 nM: TGI [17]
< 10 nM and 18.7 nM: TGI [42]
< 10 nM and 43.1 nM: TGI [4]
35.6 nM and 34 nM: TGI [35]
< 0.01 µM: TGI [1] | TGI [6] | TGI [20] | TGI [39] | TGI [41] | TGI [47] | TGI [54]
11.8 nM and 18.6 nM: TGI [7]
33.9 nM and 37.5 nM: TGI [28]
59.4 nM and 75.1 nM: TGI [57]
18.7 nM and 34.3 nM: TGI [34]
28.8 nM and 36.1 nM: TGI [10]
40.9 nM and 43.8 nM: TGI [19]
< 10 nM and 39.1 nM: TGI [58]
73.3 nM and 158 nM: TGI [13]
37 nM and 43.5 nM: TGI [32]
< 10 nM and 29.4 nM: TGI [9]
1.43 µM and 3.46 µM: TGI [26]
< 10 nM and 22.8 nM: TGI [23]
88.1 nM and 70.7 nM: TGI [37]
97.6 nM and 196 nM: TGI [21]
11.3 nM and 25.3 nM: TGI [2]
< 10 nM and 14.1 nM: TGI [14]
> 100 µM: TGI [33] | TGI [51] | TGI [53]

CCc1cc2ncc(CN3CCN(c4ccc(C(=O)NC)nc4)CC3)cc2[nH]c1=O
inactive: GI50 [1] 72.2 µM | GI50 [2] > 100 µM | GI50 [3] 52600 nM | GI50 [4] 70500 nM | GI50 [5] 29700 nM | GI50 [6] 34.5 µM | GI50 [7] 29.5 µM | GI50 [8] 68500 nM | GI50 [9] > 100 µM | GI50 [10] 78600 nM | GI50 [11] 20200 nM | GI50 [13] 50000 nM | GI50 [14] 36 µM | GI50 [15] 26100 nM | GI50 [16] 25.9 µM | GI50 [17] 18900 nM | GI50 [18] 80100 nM | GI50 [19] 60100 nM | GI50 [20] 74.6 µM | GI50 [21] > 100000 nM | GI50 [22] 23900 nM | GI50 [23] > 100 µM | GI50 [24] 71200 nM | GI50 [25] 23600 nM | GI50 [26] 30500 nM | GI50 [27] > 100000 nM | GI50 [28] 3100 nM | GI50 [29] 2300 nM | GI50 [30] 53100 nM | GI50 [31] 87200 nM | GI50 [32] > 100000 nM | GI50 [33] 2500 nM | GI50 [34] 48400 nM | GI50 [35] > 100000 nM | GI50 [36] 43500 nM | GI50 [37] 53900 nM | GI50 [59] > 100 µM | GI50 [38] 42.1 µM | GI50 [39] > 100 µM | GI50 [40] 3300 nM | GI50 [41] > 100 µM | GI50 [42] 93.1 µM | GI50 [43] 71000 nM | GI50 [44] > 100 µM | GI50 [45] > 100000 nM | GI50 [46] > 100000 nM | GI50 [47] > 100 µM | GI50 [48] 84 µM | GI50 [49] > 100000 nM | GI50 [50] > 100 µM | GI50 [52] > 100000 nM | GI50 [53] 22000 nM | GI50 [54] > 100 µM | GI50 [56] > 100000 nM | GI50 [57] > 100000 nM | GI50 [58] > 100000 nM
52400 nM: TGI [40]
> 100 µM: TGI [1] | TGI [6] | TGI [20] | TGI [26] | TGI [33] | TGI [59] | TGI [39] | TGI [41] | TGI [47] | TGI [53] | TGI [54]
20900 nM: TGI [28]
active: GI50 [51] 271 nM
20.5 µM: TGI [51]
> 100000 nM: TGI [2] | TGI [3] | TGI [4] | TGI [5] | TGI [7] | TGI [8] | TGI [9] | TGI [10] | TGI [11] | TGI [13] | TGI [14] | TGI [15] | TGI [16] | TGI [17] | TGI [18] | TGI [19] | TGI [21] | TGI [22] | TGI [23] | TGI [24] | TGI [25] | TGI [27] | TGI [30] | TGI [31] | TGI [32] | TGI [34] | TGI [35] | TGI [36] | TGI [37] | TGI [38] | TGI [42] | TGI [43] | TGI [44] | TGI [45] | TGI [46] | TGI [48] | TGI [49] | TGI [50] | TGI [52] | TGI [56] | TGI [57] | TGI [58]
26100 nM: TGI [29]
